Measurements from PubChem BioAssay AID330 (DTP/NCI, 2004).
Several values for one entry are separate records, joined by “and”; a condition that tells them apart may be missing. Identical values can stand only once. Toxic doses and inconclusive results are not listed. Peptide text beside a SMILES is read from it.

Test system: P388 leukemia ip, CD2F1 mice, survival T/C
Assay: NCI In Vivo Anticancer Drug Screen. Data for tumor model P388 Leukemia (intraperitoneal) in CD2F1 (CDF1) mice
Conditions: endpoint: median survival time, higher = longer survival
Method in brief: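 Mice carrying the transplanted tumor received test compound or vehicle. Survival was recorded in each group, and the value is the treated-group measurement divided by that of the vehicle-treated control group.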

[1] = dose: 12.5 mg/kg/injection, schedule: Q01DX009 (ip), vehicle: saline with Tween-80
[2] = dose: 25.0 mg/kg/injection, schedule: Q01DX009 (ip), vehicle: saline with Tween-80
[3] = dose: 50.0 mg/kg/injection, schedule: Q01DX009 (ip), vehicle: saline with Tween-80
[4] = dose: 60.0 mg/kg/injection, schedule: Q01DX005 (ip), vehicle: saline with Tween-80
[5] = dose: 50.0 mg/kg/injection, schedule: Q01DX005 (ip), vehicle: Klucel (hydroxypropylcellulose) (HPC)
[6] = dose: 100.0 mg/kg/injection, schedule: Q01DX005 (ip), vehicle: Klucel (hydroxypropylcellulose) (HPC)
[7] = dose: 200.0 mg/kg/injection, schedule: Q01DX005 (ip), vehicle: Klucel (hydroxypropylcellulose) (HPC)
[8] = dose: 100.0 mg/kg/injection, schedule: Q04DX003 (ip), vehicle: saline
[9] = dose: 200.0 mg/kg/injection, schedule: Q04DX003 (ip), vehicle: saline
[10] = dose: 400.0 mg/kg/injection, schedule: Q04DX003 (ip), vehicle: saline
[11] = dose: 100.0 mg/kg/injection, schedule: Q01DX001 (ip), vehicle: Klucel (hydroxypropylcellulose) (HPC)
[12] = dose: 200.0 mg/kg/injection, schedule: Q01DX001 (ip), vehicle: Klucel (hydroxypropylcellulose) (HPC)
[13] = dose: 400.0 mg/kg/injection, schedule: Q01DX001 (ip), vehicle: Klucel (hydroxypropylcellulose) (HPC)
[14] = dose: 120.0 mg/kg/injection, schedule: Q01DX005 (ip), vehicle: saline with Tween-80
[15] = dose: 240.0 mg/kg/injection, schedule: Q01DX005 (ip), vehicle: saline with Tween-80
[16] = dose: 50.0 mg/kg/injection, schedule: Q01DX005 (ip), vehicle: saline with Tween-80
[17] = dose: 100.0 mg/kg/injection, schedule: Q01DX005 (ip), vehicle: saline with Tween-80
[18] = dose: 200.0 mg/kg/injection, schedule: Q01DX005 (ip), vehicle: saline with Tween-80
[19] = dose: 12.5 mg/kg/injection, schedule: Q01DX009 (ip), vehicle: saline
[20] = dose: 25.0 mg/kg/injection, schedule: Q01DX009 (ip), vehicle: saline
[21] = dose: 50.0 mg/kg/injection, schedule: Q01DX009 (ip), vehicle: saline
[22] = dose: 100.0 mg/kg/injection, schedule: Q01DX009 (ip), vehicle: saline with Tween-80
[23] = dose: 50.0 mg/kg/injection, schedule: Q01DX009 (ip), vehicle: Klucel (hydroxypropylcellulose) (HPC)
[24] = dose: 100.0 mg/kg/injection, schedule: Q01DX009 (ip), vehicle: Klucel (hydroxypropylcellulose) (HPC)

## C[C@]12CC[C@H](O)CC1=CC[C@@H]1[C@@H]2CC[C@]2(C)c3nc4ccccc4cc3C[C@@H]12
[1]
  T/C: 104 % of control
dose: 12.5 mg/kg/injection, schedule: Q04DX003 (ip), vehicle: saline with Tween-80
  T/C: 100 % of control
[2]
  T/C: 100 % of control
dose: 25.0 mg/kg/injection, schedule: Q04DX003 (ip), vehicle: saline with Tween-80
  T/C: 100 % of control
[3]
  T/C: 95 % of control
dose: 50.0 mg/kg/injection, schedule: Q04DX003 (ip), vehicle: saline with Tween-80
  T/C: 90 % of control

## N#CC1[C@@H](C(=O)c2ccccc2)N2C=Cc3ccccc3[C@@H]2[C@H]1C#N (stereo not given in full)
[4]
  T/C: 90 % of control

## C/C(=N\NC(=S)N1CCN(C2CCCCC2)CC1)c1ccccn1
dose: 1.56 mg/kg/injection, schedule: Q01DX005 (ip), vehicle: saline with Tween-80
  T/C: 103 % of control
dose: 3.13 mg/kg/injection, schedule: Q01DX005 (ip), vehicle: saline with Tween-80
  T/C: 106 % of control
dose: 6.25 mg/kg/injection, schedule: Q01DX005 (ip), vehicle: saline with Tween-80
  T/C: 101 % of control and 87 % of control

## COc1cc2c(cc1OC)[C@H](C(=O)O)C(c1ccc3c(c1)OCO3)N(C)C2=O (stereo not given in full)
[5]
  T/C: 95 % of control
[6]
  T/C: 103 % of control
[7]
  T/C: 88 % of control

## CCOCN(COCC)c1ccccn1
[2]
  T/C: 100 % of control
[3]
  T/C: 105 % of control and 116 % of control

## CC1(C(N)=O)CO1 (stereo not given)
[8]
  T/C: 103 % of control
[9]
  T/C: 100 % of control
[10]
  T/C: 100 % of control

## CC1(C)CC(OS(=O)(=O)c2ccccc2)CC(C)(C)N1O
[11]
  T/C: 97 % of control
[12]
  T/C: 97 % of control
[13]
  T/C: 97 % of control

## O=C(N/N=C/c1cc(Br)ccc1[O-])c1cccnc1.O=C(N/N=C/c1cc(Br)ccc1[O-])c1cccnc1.[Zn+2]
[11]
  T/C: 98 % of control
[12]
  T/C: 93 % of control
[13]
  T/C: 93 % of control

## N#Cc1ccc(N=NN2CCOC2)cc1
[4]
  T/C: 86 % of control
[14]
  T/C: 100 % of control
[15]
  T/C: 93 % of control

## COC(=O)/C(CC(=O)O)=C(\c1ccc2c(c1)OCO2)c1cc(OC)c(OC)c(OC)c1
dose: 100.0 mg/kg/injection, schedule: Q04DX002 (ip), vehicle: Klucel (hydroxypropylcellulose) (HPC)
  T/C: 100 % of control
dose: 200.0 mg/kg/injection, schedule: Q04DX002 (ip), vehicle: Klucel (hydroxypropylcellulose) (HPC)
  T/C: 103 % of control
dose: 400.0 mg/kg/injection, schedule: Q04DX002 (ip), vehicle: Klucel (hydroxypropylcellulose) (HPC)
  T/C: 100 % of control

## CCOC(=O)C(C(C)N1CCOCC1)N1CCOCC1 (stereo not given)
[5]
  T/C: 110 % of control
[6]
  T/C: 100 % of control
[7]
  T/C: 101 % of control

## O=C(NC(Cc1ccccc1)C(=O)NC(Cc1c[nH]c2ccccc12)C(=O)O)OCc1ccccc1 (stereo not given)
[16]
  T/C: 90 % of control
[17]
  T/C: 98 % of control
[18]
  T/C: 91 % of control

## CCNc1snc2c1c(=O)[nH]c(=O)n2Cc1ccccc1
[19]
  T/C: 86 % of control
[20]
  T/C: 90 % of control
[21]
  T/C: 98 % of control and 92 % of control

## CN1CCN(CC2CCOc3cc(Cl)ccc3C2=O)CC1 (stereo not given)
[8]
  T/C: 105 % of control
[9]
  T/C: 108 % of control

## NC1CCCCCC1
dose: 50.0 mg/kg/injection, schedule: Q01DX005 (ip), vehicle: saline
  T/C: 110 % of control
dose: 100.0 mg/kg/injection, schedule: Q01DX005 (ip), vehicle: saline
  T/C: 86 % of control

## Cc1nn(-c2ccccc2)c2oc3ccccc3c(=O)c12
dose: 60.0 mg/kg/injection, schedule: Q01DX005 (ip), vehicle: saline
  T/C: 92 % of control
dose: 120.0 mg/kg/injection, schedule: Q01DX005 (ip), vehicle: saline
  T/C: 100 % of control
dose: 240.0 mg/kg/injection, schedule: Q01DX005 (ip), vehicle: saline
  T/C: 96 % of control

## O=P(c1ccccc1)(c1ccccc1)c1ccccc1.O=P(c1ccccc1)(c1ccccc1)c1ccccc1.O=P(c1ccccc1)(c1ccccc1)c1ccccc1.O=P(c1ccccc1)(c1ccccc1)c1ccccc1.[Ni+2].[O-][Cl+3]([O-])([O-])O
[1]
  T/C: 96 % of control
[2]
  T/C: 101 % of control
[3]
  T/C: 90 % of control and 95 % of control

## O=C(c1ccccc1)C(CC(C(=O)c1ccccc1)c1ccccc1)c1ccccc1 (stereo not given)
[16]
  T/C: 108 % of control
[17]
  T/C: 96 % of control
[18]
  T/C: 99 % of control

## NP1(Oc2ccc(F)cc2)=NP(N)(Oc2ccc(F)cc2)=NP(Oc2ccc(F)cc2)(Oc2ccc(F)cc2)=N1 (stereo not given)
[4]
  T/C: 90 % of control
[14]
  T/C: 96 % of control
[15]
  T/C: 89 % of control

## Cc1ccc2c(c1)=N/C(=N/c1[nH]c(O)c3ccccc13)N=2
[3]
  T/C: 100 % of control and 96 % of control
[22]
  T/C: 99 % of control

## CC(C)CC(NC(=O)C(N)Cc1c[nH]c2ccccc12)C(N)=O (stereo not drawn) (H-Trp-Leu-NH2; configuration not given here)
[9]
  T/C: 95 % of control
[10]
  T/C: 106 % of control

## CC1=CC2(C)OC(=O)N(c3ccccc3)C2N=C1 (stereo not given)
[23]
  T/C: 111 % of control
[24]
  T/C: 109 % of control

## CCN(CC)C1(C(F)C(F)(F)F)OCC2(CO1)COC(C(F)C(F)(F)F)(N(CC)CC)OC2 (stereo not given)
[4]
  T/C: 98 % of control
[14]
  T/C: 104 % of control
[15]
  T/C: 91 % of control

## C#Cc1cccc(NC(=O)c2ccc(Cl)cc2Cl)c1
dose: 60.0 mg/kg/injection, schedule: Q01DX005 (ip), vehicle: Klucel (hydroxypropylcellulose) (HPC)
  T/C: 100 % of control
dose: 120.0 mg/kg/injection, schedule: Q01DX005 (ip), vehicle: Klucel (hydroxypropylcellulose) (HPC)
  T/C: 104 % of control
dose: 240.0 mg/kg/injection, schedule: Q01DX005 (ip), vehicle: Klucel (hydroxypropylcellulose) (HPC)
  T/C: 105 % of control

## Cc1ccnn1C(C(=O)c1ccccc1)c1ccccc1 (stereo not given)
[3]
  T/C: 108 % of control
[22]
  T/C: 105 % of control
dose: 200.0 mg/kg/injection, schedule: Q01DX009 (ip), vehicle: saline with Tween-80
  T/C: 105 % of control

## C=C1CCC(OC(C)=O)C2(C)C(OC(C)=O)CC3OC3(C)C2C(OC(C)=O)C2C(C)C(=O)OC2C1Cl (stereo not given)
dose: 25.0 mg/kg/injection, schedule: Q01DX009 (ip), vehicle: Klucel (hydroxypropylcellulose) (HPC)
  T/C: 99 % of control
[23]
  T/C: 97 % of control
[24]
  T/C: 96 % of control
dose: 200.0 mg/kg/injection, schedule: Q01DX009 (ip), vehicle: Klucel (hydroxypropylcellulose) (HPC)
  T/C: 93 % of control

## CCN(CC)CCC(=O)/C=C/c1ccccc1
[20]
  T/C: 111 % of control
[21]
  T/C: 116 % of control and 118 % of control

## C#CCN(C)Cc1cc(OC)c(OC)c(OC)c1
[19]
  T/C: 102 % of control
[20]
  T/C: 94 % of control
[21]
  T/C: 102 % of control and 86 % of control
dose: 100.0 mg/kg/injection, schedule: Q01DX009 (ip), vehicle: saline
  T/C: 95 % of control and 96 % of control

## Cc1cc(Cl)nn2cc(CC(=O)O)nc12
[11]
  T/C: 100 % of control
[12]
  T/C: 104 % of control
[13]
  T/C: 98 % of control

## C=C(C)CC1(C)C(=O)CCC1O (stereo not given)
[4]
  T/C: 104 % of control
[14]
  T/C: 102 % of control
[15]
  T/C: 106 % of control

## CC(=O)O[C@H]1[C@@H](OC(C)=O)[C@]2(C)[C@H](CC[C@@]3(C)[C@H](c4ccoc4)C[C@H]4O[C@@]423)[C@@]2(C)C=CC(=O)OC(C)(C)[C@H]12
dose: 1.25 mg/kg/injection, schedule: Q04DX003 (ip), vehicle: Klucel (hydroxypropylcellulose) (HPC)
  T/C: 94 % of control
dose: 2.5 mg/kg/injection, schedule: Q04DX003 (ip), vehicle: Klucel (hydroxypropylcellulose) (HPC)
  T/C: 88 % of control
dose: 5.0 mg/kg/injection, schedule: Q04DX003 (ip), vehicle: Klucel (hydroxypropylcellulose) (HPC)
  T/C: 93 % of control
dose: 10.0 mg/kg/injection, schedule: Q04DX003 (ip), vehicle: Klucel (hydroxypropylcellulose) (HPC)
  T/C: 88 % of control

## CC(CCCN)Nc1cc(O)cc2cccnc12 (stereo not given)
dose: 100.0 mg/kg/injection, schedule: Q01DX001 (ip), vehicle: saline
  T/C: 92 % of control
dose: 200.0 mg/kg/injection, schedule: Q01DX001 (ip), vehicle: saline
  T/C: 92 % of control
dose: 400.0 mg/kg/injection, schedule: Q01DX001 (ip), vehicle: saline
  T/C: 89 % of control

## CCCCCC(CN(C)C)C(O)/C=C/c1ccc(Cl)c(Cl)c1 (stereo not given)
[19]
  T/C: 109 % of control
[20]
  T/C: 107 % of control
